The source of these data is ChEMBL document CHEMBL2086382, “From bradykinin B2 receptor antagonists to orally active and selective bradykinin B1 receptor antagonists” (J Med Chem, 2012).

Conditions in all cases: in vivo
Data set [1] is described as follows: Oral bioavailability in Swiss mouse at 5 mg/kg. Type of data set: ADME, organism-based.
The nature of data set [2]: Oral bioavailability in Sprague-Dawley rat at 10 mg/kg. Format: ADME, organism-based.
Data set [3] in a line: Volume of distribution in Swiss mouse at 5 mg/kg, po and 1 mg/kg, iv. Format: ADME, organism-based.
A short description of data set [4]: Volume of distribution in Sprague-Dawley rat at 10 mg/kg, po and 1 mg/kg, iv. Format: ADME, organism-based.
The nature of data set [5]: Oral bioavailability in Beagle dog at 5 mg/kg. Format: ADME, organism-based, Canis lupus familiaris.
Data set [6] can be described thus: Volume of distribution in Beagle dog at 5 mg/kg, po and 1 mg/kg, iv. Type of data set: ADME, organism-based, Canis lupus familiaris.

With `COc1cc(C)c(S(=O)(=O)N(C)CCOCC(=O)N(C)Cc2ccc(C3=NCCN3)cc2)c(C)c1` [SAFOTIBANT], the bioavailability (as a rule, the share of a dose that reaches the circulation, judged against a reference dose that is usually intravenous) was 12% in data set [1] and 0.3% in data set [2]. Besides, the Vd stood at 2.6 L/kg in data set [3] and 1.4 L/kg in data set [4].

Molecule `COc1cc(C)c(S(=O)(=O)N(C)CCOCC(=O)N2CCN(CC3CCN(C)CC3)CC2)c(C)c1` came in with a bioavailability in data set [2] of 16%. In addition, the Vd in data set [4] came to 3.5 L/kg.

`COc1cc(C)c(S(=O)(=O)N(C)CCOCC(=O)N2CCC(C3CCN(C)CC3)CC2)c(C)c1` yielded a bioavailability in data set [2] of 12.3%. This molecule also gave a Vd in data set [4] of 0.6 L/kg.

`COc1cc(C)c(S(=O)(=O)N(C)CCOCC(=O)N2CCC(C(C)(C)CN(C)C)CC2)c(C)c1` gave a bioavailability in data set [2] of 3.8%. The same molecule yielded a Vd in data set [4] of 0.5 L/kg.

For the molecule `COc1cc(C)c(S(=O)(=O)N(C)CCOCC(=O)N2CCC(CCN(C)C)CC2)c(C)c1`, the bioavailability was 38% in data set [1] and 19% in data set [2]. Also, the Vd in data set [3] came out at 0.5 L/kg; in data set [4], 0.79 L/kg.

`COc1cc(C)c(S(=O)(=O)N(C)CCOCC(=O)N2CCC(N3CCN(C)CC3)CC2)c(C)c1` came in with a bioavailability in data set [2] of 6%. The molecule further gave a Vd in data set [4] of 0.6 L/kg.

The molecule `CCN1CCC(N2CCN(C(=O)COCCN(C)S(=O)(=O)c3c(C)cc(OC)cc3C)CC2)CC1` registered a bioavailability in data set [2] of 12%. The Vd in data set [4] was 3.8 L/kg.

As to `COc1cc(C)c(S(=O)(=O)N(C)CCOCC(=O)N2CCN(C3CCN(C)CC3)CC2)c(C)c1`, the figures for the bioavailability in data set [1], in data set [2] and in data set [5] were 22%, 18% and 43%, respectively. Also, the values for the Vd in data set [3], in data set [4] and in data set [6] were 1.3 L/kg, 1.5 L/kg and 2.7 L/kg, respectively.

The molecule `COc1cc(C)c(S(=O)(=O)N(C)CCOCC(=O)N2CCN([C@@H]3CN4CCC3CC4)CC2)c(C)c1` yielded a bioavailability in data set [1] of 6.7%. For the same molecule, the Vd in data set [3] turned out to be 1 L/kg.
